The values below come from PubChem BioAssay AID328 (DTP/NCI, 2004).

In this assay the test system is BDF1 mice, P388 leukemia ip, median survival T/C. Description: NCI In Vivo Anticancer Drug Screen. Data for tumor model P388 Leukemia (intraperitoneal) in B6D2F1 (BDF1) mice. The note with it: endpoint: median survival time, higher = longer survival. An outline of the steps: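 Antitumour effect was judged in vivo: survival in drug-treated mice, normalised to that of vehicle-dosed controls, gives the reported T/C.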

[1] abbreviates: dose: 100.0 mg/kg/injection, schedule: Q04DX003 (ip), vehicle: Klucel (hydroxypropylcellulose) (HPC).
Where [2] appears, read: dose: 200.0 mg/kg/injection, schedule: Q04DX003 (ip), vehicle: Klucel (hydroxypropylcellulose) (HPC).
Setting [3] is: dose: 400.0 mg/kg/injection, schedule: Q04DX003 (ip), vehicle: Klucel (hydroxypropylcellulose) (HPC).
The mark [4] stands for this setting: dose: 100.0 mg/kg/injection, schedule: Q04DX002 (ip), vehicle: saline with Tween-80.
[5] abbreviates: dose: 200.0 mg/kg/injection, schedule: Q04DX002 (ip), vehicle: saline with Tween-80.
Setting [6] is: dose: 400.0 mg/kg/injection, schedule: Q04DX002 (ip), vehicle: saline with Tween-80.
The mark [7] stands for this setting: dose: 50.0 mg/kg/injection, schedule: Q04DX003 (ip), vehicle: saline with Tween-80.
Where [8] appears, read: dose: 50.0 mg/kg/injection, schedule: Q01DX009 (ip), vehicle: saline with Tween-80.

“And” between values parts separate entries of the source, which are not always exact repeats. Identical values can stand only once. Inconclusive results and toxic doses are left out.

For the molecule `Nc1ccc(S(=O)(=O)Nc2ccc(I)cc2)cc1`, the T/C (dose: 100.0 mg/kg/injection, schedule: Q01DX009 (ip), vehicle: Klucel (hydroxypropylcellulose) (HPC)) was 90 % of control; the T/C under setting [1] is 123 % of control; the T/C (dose: 200.0 mg/kg/injection, schedule: Q01DX009 (ip), vehicle: Klucel (hydroxypropylcellulose) (HPC)) was 104 % of control; the T/C under setting [2] was 96 % of control; the T/C (dose: 400.0 mg/kg/injection, schedule: Q01DX009 (ip), vehicle: Klucel (hydroxypropylcellulose) (HPC)) was 100 % of control; the T/C under setting [3] was 92 % of control.

Turning to `O=[N+]([O-])c1cccc(Oc2ncccc2[N+](=O)[O-])c1`, the T/C (dose: 65.0 mg/kg/injection, schedule: Q04DX003 (ip), vehicle: Klucel (hydroxypropylcellulose) (HPC)) was 118 % of control; the T/C under setting [1] is 109 % of control; the T/C (dose: 150.0 mg/kg/injection, schedule: Q04DX003 (ip), vehicle: Klucel (hydroxypropylcellulose) (HPC)) is 109 % of control; the T/C under setting [2] was 105 % of control; the T/C under setting [3] is 115 % of control.

As to `Cc1ccc(C(=Nc2ccccc2)c2ccccc2C)cc1`, the T/C under setting [4] is 88 % of control and 100 % of control; the T/C under setting [5] was 91 % of control; the T/C under setting [6] was 86 % of control.

Take `CCN(CC)Cc1nc2nc(Cl)c(Cl)nc2[nH]1`: the T/C reads like this: (dose: 5.0 mg/kg/injection, schedule: Q01DX009 (ip), vehicle: saline with Tween-80) 112 % of control; (dose: 10.0 mg/kg/injection, schedule: Q01DX009 (ip), vehicle: saline with Tween-80) 114 % of control; (dose: 12.5 mg/kg/injection, schedule: Q04DX003 (ip), vehicle: saline with Tween-80) 114 % of control; (dose: 20.0 mg/kg/injection, schedule: Q01DX009 (ip), vehicle: saline with Tween-80) 98 % of control; (dose: 25.0 mg/kg/injection, schedule: Q04DX003 (ip), vehicle: saline with Tween-80) 100 % of control and 114 % of control; under setting [7], 88 % of control and 100 % of control and 104 % of control.

`CN(C(=O)c1ccccc1)N(C)C(=O)c1ccccc1`: the T/C was 90 % of control (dose: 12.5 mg/kg/injection, schedule: Q04DX003 (ip), vehicle: Klucel (hydroxypropylcellulose) (HPC)); 109 % of control (dose: 25.0 mg/kg/injection, schedule: Q04DX003 (ip), vehicle: Klucel (hydroxypropylcellulose) (HPC)); 100 % of control (dose: 50.0 mg/kg/injection, schedule: Q04DX003 (ip), vehicle: Klucel (hydroxypropylcellulose) (HPC)).

As for `COc1cc2c(cc1OC)-c1cc3cc(OC)c(OC)cc3c(C)[n+]1CC2` (tested in a mixture with another compound), the T/C (dose: 12.5 mg/kg/injection, schedule: Q01DX009 (ip), vehicle: Klucel (hydroxypropylcellulose) (HPC)) was 103 % of control; the T/C (dose: 25.0 mg/kg/injection, schedule: Q01DX009 (ip), vehicle: saline with Tween-80) is 104 % of control; the T/C (dose: 50.0 mg/kg/injection, schedule: Q01DX009 (ip), vehicle: Klucel (hydroxypropylcellulose) (HPC)) was 123 % of control; the T/C under setting [8] was 113 % of control; the T/C (dose: 100.0 mg/kg/injection, schedule: Q01DX009 (ip), vehicle: saline with Tween-80) is 154 % of control.

`CC(=O)OC1CC2CCC1(C)C2(C)C` (configuration not stated): the T/C was 109 % of control under setting [7]; 109 % of control (dose: 100.0 mg/kg/injection, schedule: Q04DX003 (ip), vehicle: saline with Tween-80); 118 % of control (dose: 200.0 mg/kg/injection, schedule: Q04DX003 (ip), vehicle: saline with Tween-80).

With `CS(=O)(=O)OCCN(CCOS(C)(=O)=O)c1ccc(C(=O)O)cc1`, the T/C is 195 % of control (dose: 33.0 mg/kg/injection, schedule: Q01DX009 (ip), vehicle: saline with Tween-80); 200 % of control under setting [8]; 236 % of control (dose: 75.0 mg/kg/injection, schedule: Q01DX009 (ip), vehicle: saline with Tween-80); 113 % of control (dose: 300.0 mg/kg/injection, schedule: Q04DX003 (ip), vehicle: saline with Tween-80).

With `CC(=O)CC(C)=O.CC(=O)CC(C)=O.[CH3][Sn][CH3]`, the T/C is 111 % of control (dose: 25.0 mg/kg/injection, schedule: Q01DX001 (ip), vehicle: Klucel (hydroxypropylcellulose) (HPC)) and 119 % of control (dose: 50.0 mg/kg/injection, schedule: Q01DX001 (ip), vehicle: Klucel (hydroxypropylcellulose) (HPC)).

`COC(=O)NC1=C(N2CC2)C(=O)C(NC(=O)OC)=C(N2CC2)C1=O`: the T/C (dose: 0.37 mg/kg/injection, schedule: Q01DX009 (ip), vehicle: saline) was 242 % of control and 222 % of control; the T/C (dose: 0.75 mg/kg/injection, schedule: Q01DX009 (ip), vehicle: saline) is 252 % of control and 270 % of control.

For the molecule `O=[Se](=O)(c1ccccc1)c1ccccc1`, the T/C reads like this: under setting [4], 97 % of control; under setting [5], 103 % of control; under setting [6], 94 % of control.
